`CSc1cnc2c(-c3ccccc3)csc2c1O` gave a melting point of 273 to 275 °C. `Cc1nc2c3c(ccn2c1C)C(=O)C(O)C(c1ccccc1)N3` (stereo not given) showed a melting point of 232 to 234 °C. Compound `COc1ccc2cc(CCCCC(O)CCc3cccnc3)ccc2c1` (stereo not given) has a melting point of 83 to 84 °C. Compound `Fc1ccc2[nH]cc(C3=CCN(CC4CCc5ccccc5O4)CC3)c2c1` (stereo not given) has a melting point of 172 to 175 °C. In the case of `CCNC(=O)c1cccs1`, the melting point is reported as 75 to 78 °C. With `BrCCNC(c1ccccc1)(c1ccccc1)c1ccccc1` the melting point was 108 to 109 °C. `CCCCCCCCCc1ccc(-c2ccc(OCC(OC3CCCCO3)C(F)(F)F)nn2)cc1` (stereo not given) gave a melting point of 96.1 °C. With `COc1nc(C)cnc1NS(=O)(=O)c1ccccc1-c1ccc(CC(C)C)c([N+](=O)[O-])c1` the melting point was 114 to 115 °C. In the case of `COC=C1CCC(c2ccc(C(=O)OC)cc2)CC1` (stereo not given), the melting point is reported as 58 °C. Work on `COc1ccccc1C(=O)CC(=O)c1ccccc1O` yielded a melting point of 80 to 84 °C. Work on `CC(C)=NN=C(N)Nc1c(Cl)cccc1Cl` yielded a melting point of 205 to 210 °C. Compound `COC(=O)C(C(=O)OC)C(Cc1cc(Cl)ccc1[N+](=O)[O-])c1ccc(OC)cc1` (stereo not given) has a melting point of 117 to 120 °C. `COc1ccc(C(=O)Nc2ccccc2)cc1Nc1ccccc1` gave a melting point of 194 to 195 °C. `O=C(O)CCCc1cc2nc(C(F)(F)F)ccc2n1S(=O)(=O)c1cccc2ccccc12` showed a melting point of 195 °C. `Clc1ccc2c(c1)c(-c1ccccc1)c1n2CCNC1` showed a melting point of 163 to 164 °C. Work on `Fc1ccccc1-c1nncc2c(-c3ccccc3)c(OCc3ccccn3)nn12` yielded a melting point of 182 to 183 °C. `Cc1cc(C)cc(-c2nc(NC(=O)c3ccccc3)sc2-c2ccncc2)c1` showed a melting point of 285 to 286 °C. `O=c1nc(-c2ccc3c(c2)OCO3)c2cc3c(cc2n1CC1CC1)OCO3` showed a melting point of 255 to 260 °C. Work on `Cn1nc(-c2cc(C(=O)O)c(Cl)cc2F)c(Cl)c1OC(F)F` yielded a melting point of 137 to 140 °C. With `CSc1c(C(C)C(=O)O)n(Cc2ccc(Cl)cc2)c2ccc(F)cc12` (stereo not given) the melting point was 136 to 140 °C. With `CSC1=Nc2ccccc2C2=NCC(CC3CNCCC34CCCCC4)N12` (stereo not given) the melting point was 114 to 115 °C. `CC(C)S(=O)(=O)n1c(N)nc2ccc(C(=O)c3ccccc3)cc21` showed a melting point of 191 to 193 °C. Work on `COc1cc(C(=O)O)ccc1Cc1nn(C)c2ccc(NC(=O)OC3CCCC3)cc12` yielded a melting point of 216 to 217 °C. Compound `N#Cc1cc(F)ccc1Oc1cccc(C(F)(F)F)c1` has a melting point of 51 °C. `CC(=O)SCC(C(=O)NC(C)C(=O)OCc1ccccc1)C1CCc2ccccc21` (stereo not given) showed a melting point of 95 °C. With `CC(C)Oc1ccc(CCCOc2cc(CCC(=O)O)n(-c3ccccc3)n2)c(OCc2ccc(Cl)cc2Cl)c1` the melting point was 139 to 141 °C. In the case of `CCCc1c(OCCCCCCOc2ccc(C(=O)c3cccc(C(=O)OCC)c3)cc2CCC(=O)OCC)ccc2c1OCCC2=O`, the melting point is reported as 58 to 59.5 °C. With `O=C(O)c1[nH]c2cc(Cl)cc(Cl)c2c1C=C1CON(c2ccccc2)C1=O` the melting point was > 250 °C. In the case of `CN(C)CCN(CCN(C)C)c1cccc(-c2nc3cc(Cl)c(Cl)cc3[nH]2)c1`, the melting point is reported as 129 to 132 °C. Compound `COc1ccc(-n2c(CC(=O)O)c(C(=O)O)c3cc(Oc4ccc(OC(C)C)cc4)ccc32)cc1` has a melting point of 226 °C. `CC(C)n1c(=O)n(C)c(=O)c2c(SCCCO)n(C3Cc4ccccc4C3)cc21` showed a melting point of 123 to 125 °C. With `O=C(c1ccc(C(F)(F)F)cc1)N1CCC(Cc2ccc(C3=NCCO3)cc2)CC1` the melting point was 115 °C. Compound `COC(=O)c1ccc(OC(C)c2ccccc2OCc2ccccc2)cc1` (stereo not given) has a melting point of 90.8 to 91.5 °C. `CNC(=S)C1(c2cccnc2)CCCS1=O` (stereo not given) showed a melting point of 204 °C. `CSc1nc(NC2CCCCC2)c2nsnc2n1` showed a melting point of 134 to 136 °C. Compound `Oc1ccc(-c2nc3cc(O)ccc3o2)cc1` has a melting point of 264 to 267 °C. For `O=C(O)CNC(=O)c1ccc(OCc2ccccc2)cc1OCc1ccccc1`, the melting point was 168 to 169 °C. `CCOC(=O)C=Cc1ccc(C=CC(=O)OCC)c2ccccc12` showed a melting point of 90 to 91 °C. `COC(=O)c1cc(C(=O)OC)n(-c2ccc(N)cc2C(=O)c2ccccc2)n1` gave a melting point of 171 to 172 °C. Compound `CCCCCCCCNC(=O)ON=C(C1=CC(=O)C(C)(C2CCCCC2)O1)c1ccccc1` (stereo not given) has a melting point of 85 to 87 °C. With `COc1ccc(-c2nnc3c4ccccc4c(OC4CCNC4=O)nn23)cc1` (stereo not given) the melting point was 290 to 293 °C. `CCn1cc(C(=O)O)c(=O)c2cc(F)c(N3CCN(C)C(c4cc5cc(Cl)ccc5o4)C3)cc21` (stereo not given) showed a melting point of 248 to 249 °C. Compound `O=C1C(=O)c2ccccc2C2=C1SCC1(CCN(C(=O)c3ccoc3)CC1)O2` has a melting point of 234 to 235 °C. For `CCON=Cc1cnnc2ccccc12`, the melting point was 78 to 81 °C. In the case of `C[C@H](C#Cc1sccc1COCc1ccc(F)cc1)N(O)C(N)=O`, the melting point is reported as 94 to 95 °C. `C=C(c1ccsc1C(=O)O)c1cc(C(C)(C)C)cc2c1CCC2(C)C` gave a melting point of 146 to 148 °C. In the case of `CS(=O)(=O)CCS(=O)(=O)C1CCCCC1`, the melting point is reported as 89 to 91 °C. For `NC(=O)c1ccc(N2CCN(Cc3cn4cc(Br)ccc4n3)CC2)cc1`, the melting point was 238 to 239 °C. With `COC(=O)Nc1nc2cnc3ccccc3c2n1CC(C)(C)O` the melting point was 225 °C. Work on `CN1C(=O)N(c2c(Cl)cccc2Cl)Cc2cnc(Nc3ccccc3)nc21` yielded a melting point of 222 to 224 °C. For `CCOC(=O)c1nc(-c2ccccc2)c(-c2ccc(=O)n(C(C)C)n2)s1`, the melting point was 153 to 154 °C. For `CCOC(=O)CCCCCCCCCCNC(=O)c1cc(O)ccc1O`, the melting point was 72 to 74 °C. `CCCn1c(COC)nc2c(N)nc3ccc(OCCC4CCCN4C)cc3c21` (stereo not given) gave a melting point of 155 to 157 °C. `CC1(C)OC(=O)Nc2ccc(-c3ccc(F)c(C#N)c3)cc21` showed a melting point of 255 to 256 °C. Compound `N#Cc1ccc2c(c1)C=CCCO2` has a melting point of 69 to 71 °C. Work on `CNC(=O)c1cccc(NC(=O)Cc2cccc3sccc23)c1` yielded a melting point of 192 °C. Work on `CC(=O)NC[C@H]1CN(c2ccc(N3CCC4(CC3)COCCO4)c(F)c2)C(=O)O1` yielded a melting point of 114 to 116 °C. Work on `CCOCc1cc2ccccc2oc1=Nc1ccc(CC)cc1` yielded a melting point of 104 to 105 °C. `COC(=O)C1=CCC(=NON)C=C1` gave a melting point of 170 to 172 °C. In the case of `COc1cc(C)cc(C(=O)O)c1C12OC1C(=O)c1c(O)cccc1C2=O` (stereo not given), the melting point is reported as 267 to 268 °C. `CC[C@@H](c1ccccc1)N(Cc1ccc(C(=O)OC)c(F)c1)S(=O)(=O)c1ccc(Cl)cc1` showed a melting point of 96 to 98 °C. In the case of `O=C(NCCCCCCNC(=O)c1ccc(OC(F)(F)F)cc1)c1ccc(OC(F)(F)F)cc1`, the melting point is reported as 179 to 180 °C. `O=C(Nc1ccccc1C(=O)NCCc1nccs1)c1ccc(Cl)cc1` gave a melting point of 156 to 160 °C. For `CC1(C)Oc2cc([N+](=O)[O-])ccc2[C@@H](N2Cc3ccccc3C2=O)[C@@H]1O` (relative stereo), the melting point was 249 to 250 °C. Compound `Cn1cc(C(=O)Nc2ccccc2-c2ccc(Cl)c(Cl)c2)c(C(F)(F)F)n1` has a melting point of 131 to 133 °C. In the case of `CCCCCCCCCCCCCCCC(=O)OCC(CO)CCn1cnc2c(=O)[nH]c(N)nc21` (stereo not given), the melting point is reported as 183 to 191 °C. For `CCOC(=O)c1ccc(COCc2csc3nc(C(=O)NCc4cccc(OC)c4)[nH]c(=O)c23)cc1`, the melting point was 173 °C. `Cc1cc(O)nc(C=Cc2ccccc2)n1` gave a melting point of 217 to 219 °C. In the case of `CCOC(=O)C1=C(C(F)(F)F)COc2ccc3ccccc3c21`, the melting point is reported as 246 to 249 °C. Work on `CCOCC1COc2c(cc3ncc(C(=O)O)c(O)c3c2Cl)O1` (stereo not given) yielded a melting point of 266 to 267 °C. `Cc1c(O)cccc1Br` gave a melting point of 89 °C. `COc1cc(C(=O)c2ccccc2Cl)cc([N+](=O)[O-])c1O` showed a melting point of 129 to 131 °C. `CNC(=O)C(Cc1ccc(OC)cc1)NC(=O)Nc1n[nH]c(=S)s1` (stereo not given) gave a melting point of 232 to 233 °C. For `COC(=O)c1ccc(-c2nc3c(O)cccc3s2)cc1`, the melting point was 215 to 219 °C. `CC(=O)OCC12CCC(OC(C)=O)CC1CCC1C2CCC2(C)C(OC(=O)C(C)(C)C)CCC12O` (stereo not given) showed a melting point of 155 to 156 °C. In the case of `CC(=O)Nc1cccc(-c2cccnc2)c1`, the melting point is reported as 72 to 74 °C. `N[C@@H](Cc1ccc(F)cc1)[C@H](O)c1ccc(F)cc1` (racemic) showed a melting point of 66 to 67 °C. `Cc1ccc(Nc2c(N)cc(C(=O)O)cc2S(N)(=O)=O)cc1` showed a melting point of 249 to 252 °C. Compound `Cn1c2ccccc2c(=O)c2c(Br)cccc21` has a melting point of 219 to 221 °C. For `O=[N+]([O-])c1ccc(Oc2ccc(Cl)cc2)cc1`, the melting point was 67 to 70 °C. Compound `O=S1(=O)CCCc2[nH]c3ccccc3c2CC1` has a melting point of 207 to 208 °C. Compound `CC(C)Cn1cc(-c2ccc3nnn(Cc4ccc5ncccc5c4)c3n2)cn1` has a melting point of 160 to 163 °C. Work on `COc1ccc(C(=O)NC(=O)Nc2ccc3c(c2)/C(=C/c2ccc[nH]2)C(=O)N3)cc1` yielded a melting point of 278 to 283 °C. In the case of `COc1cc2ncnc(N3CCC(NCc4ccccn4)CC3)c2cc1OC`, the melting point is reported as 151 to 155 °C. `O=C(O)COc1ccc(C2=CC(=O)CC(c3ccccc3F)C2)c(Cl)c1Cl` (stereo not given) gave a melting point of 187 to 190 °C. Work on `N#CC(CCCCCC(=O)O)c1ccc2ccccc2c1` (stereo not given) yielded a melting point of 88 to 89 °C. Work on `CCOC(=O)Cc1ccc2c(c1)C(O)C(NC(=O)OC)CC2` (stereo not given) yielded a melting point of 99 to 100 °C. Compound `CC(C)c1nn(-c2ccccc2)c(-c2ccc(F)cc2)c1CCC=O` has a melting point of 86 to 88 °C. `CCC(=O)Nc1ccc(-c2ccncc2)cc1` gave a melting point of 179 to 181 °C. `COc1cccc(COC(=O)c2ncn3c2[C@@H]2CCCN2C(=O)c2c(Cl)cccc2-3)c1` showed a melting point of 131 to 133 °C. Work on `Cc1ccc(C)n1-c1cc2[nH]c(=O)c(=O)n(CC(=O)NCc3ccccc3)c2cc1Cl` yielded a melting point of 244 °C. In the case of `Cc1noc(NS(=O)(=O)c2cccc(Cl)c2C)c1Br`, the melting point is reported as 185 to 187 °C. Compound `CC(c1cc2ncnc(Cl)c2[nH]1)c1oc2ccccc2c(=O)c1-c1cccc(F)c1` (stereo not given) has a melting point of 166 to 168 °C. With `CCOC(=O)/C(=N\OCC1CCCCC1)c1csc(N)n1` the melting point was 107 to 108 °C. Compound `COc1cccc2c(CCN(CC3CC3)C3COc4c(F)ccc(C(N)=O)c4C3)coc12` (stereo not given) has a melting point of 130 to 138 °C. In the case of `O=c1oc(-c2ccc(S(=O)c3ccccc3)cc2)cc(O)c1SCCc1ccccc1` (stereo not given), the melting point is reported as 171 to 173 °C. For `CCOC(=O)N1CCC(Nc2nc3cncnc3n2Cc2ccccc2)CC1`, the melting point was 157 °C. Work on `COc1ccc(C(NCCC(c2ccccc2)c2ccccc2)c2cccc(Nc3c(N)c(=O)c3=O)c2)cc1` (stereo not given) yielded a melting point of 132 to 134 °C. `Cc1c(C#N)c(-c2ccc(C#N)cc2)c(C)n1Cc1ccc(Cl)c(CO)c1` showed a melting point of 189 °C. Compound `O=C(O)C(CC1CCCCC1)NC(=O)C(CS)C(F)(F)F` (stereo not given) has a melting point of 116 to 118 °C.

Reference: a melting point compilation (Tetko et al.; mined from patent text by program, amines drawn as free bases though some values may be those of a salt)
